Measured values taken from article PMC8605562, “MSMEG_3955 from Mycobacterium smegmatis is a FMN bounded homotrimeric NAD(P)H:Flavin mononucleotide (FMN) oxidoreductase” (BMC Microbiology, 2021).

B1: MSMEG_3955 with cysteine 63 replaced by alanine (enzyme, Mycobacterium smegmatis mc2 155, UniProt A0QZA6 1-334, looked up)
chain: MNTHFPDTETIHAALALAMRAPSIHNSQPWQWRVGERSVHLYADLDRHLTSTDPDSRDLLLSAGAALHHCVIAFAALGWYASVHRLPNPAEPEHLASIELRRQTPTDLDIALAAAIPRRRTDRRHYSAWPVSHSDIAMMGARAARAGVMLRRVESLSRLQDIVAESIARHAADDGYLRELTAWSGKYASTAGVPARSAPKPEPGAPLSSRMFAGAALKQPDTGAGADEGAVVLALGTADDTRMSRLRAGEATSLILLTATAMGLATCPVTEPLEISETRDAVQAEVFGASAFPQMMLRVGWAPVNADPLPPTPRRHVADAVRWLDGSPFEPESE
notes: MSMEG_3955, Mycobacterium smegmatis mc2 155, made by site-directed mutagenesis on the pET-28a plasmid of the wild-type gene; cysteine (TGC) at position 63 replaced with alanine (GCC); Same construct as m1 apart from C63A; also called cys-63 mutated native protein MSMEG_3955; mutated protein; source: E. coli BL21 (DE3), pET-28a, purified (Ni-NTA)

Legend:
[1] = target: T1, MSMEG_3955 (Mycolicibacterium smegmatis, UniProt A0QZA6); experiment: NADPH oxidation at […] nm; type: biochemical; details: 200 uM NADPH, 50 uM FMN, 1.6 uM enzyme, 50 mM Tris-HCl pH 7.6, 25 °C, aerobic
T1 construct: ~36 kDa subunit, homotrimer ~115 kDa; co-purifies with FMN

[2] = target: the molecule itself; experiment: native gel or EMSA; NATIVE-PAGE (12% in the methods, 10% in the legend of Fig. 3a) of purified protein loaded without any treatment, 10 ug (Fig. 3a) or 20 ug each of wild type and mutant (Fig. 2a); band at ~115 kDa against ~36 kDa on SDS-PAGE

T1 sequence (A0QZA6 entry or part of it): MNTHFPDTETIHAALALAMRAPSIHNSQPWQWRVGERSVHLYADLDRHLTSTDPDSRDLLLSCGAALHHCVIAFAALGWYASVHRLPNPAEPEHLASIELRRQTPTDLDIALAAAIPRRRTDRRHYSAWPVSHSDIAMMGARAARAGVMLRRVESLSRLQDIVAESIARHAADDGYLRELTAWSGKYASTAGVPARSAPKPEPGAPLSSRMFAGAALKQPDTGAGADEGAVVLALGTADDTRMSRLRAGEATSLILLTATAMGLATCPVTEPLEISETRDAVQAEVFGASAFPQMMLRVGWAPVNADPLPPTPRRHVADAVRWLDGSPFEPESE

Row | Molecule | NADPH oxidation at 340 nm [1] | binding result [2]
1 | NC(=O)C1=CN([C@@H]2O[C@H](COP(=O)(O)OP(=O)(O)OC[C@H]3O[C@@H](n4cnc5c(N)ncnc54)[C@H](OP(=O)(O)O)[C@@H]3O)[C@@H](O)[C@H]2O)C=CC1 [NADPH] | showed oxidative NADPH dependent FMN reductase activity as oxidation of NADPH was seen | –
2 | B1 | – | binds
